Source: US8974737B2, “Space Disinfection” (Saban Ventures PTY Limited, priority 2005, dated 2015)
Where two headings read alike, the source gives them in different places.

Experiments:
Pseudomonas aeruginosa = details: 8 cubic meters
Description: (§1) The components of the device included a nebuliser array, (6×2 cm diameter transducers in a circular array), a heater element, a first and second fan and a dehumidifier system. The dehumidifier used had been a small air conditioning unit positioned appropriately within the space. The purpose of the first fan was to propel nanoparticles from the heater into the space and the purpose of the second fan was to ensure an equal distribution of the aerosol to all surfaces within the space.
(§2) Tests were conducted in an 8 cubic meter volume of cubic shape.
(§3) Samples were coated with an inoculum at levels of approximately log 6 and air dried for 2 hours on the plastic petri dish (Techno-Plas, Australia) in a laminar flow cabinet. The samples were placed in various positions in the room including on the walls, floor and ceiling.
(§4) Unless otherwise stated, the operating conditions were: • Solution: 35% peroxide • Temp: 25 degrees • RH: fluctuated 45% to ˜65%. Sometimes 75% • Nebulizer array 2.4 MHz • Peroxide vapour: 300-500 ppm • Air flow post heater: 400-600 cubic meters per hour. • Heater Temp: 80-90 degrees • Peroxide delivery: Optimally approximately 0.75 gram per cubic meter per minute, ie […] for the 8 cubic meter room.
The dishes and lids are specifically designed to allow gas exchange with an incubator environment while keeping the dish free from external microbial contamination.

Aspergillus niger [1] = details: 8 cubic meters
Description: as §1, §2, §3, §4

Aspergillus niger [2] = details: 69 cubic meters, peroxide vapour 500 ppm, contact time 30 min
Method: as §3, §4

[3] = tested on: Bacillus stearothermophillus; details: at 550 ppm; on both the walls and floor
Method: as §3, §4

[4] = closed carriers, peroxide vapour 300 ppm, contact time 20 min
[5] = open carriers, peroxide vapour 50 ppm, contact time 5 min
[6] = open carriers, peroxide vapour 50 ppm, contact time 10 min
[7] = open carriers, peroxide vapour 50 ppm, contact time […]
[8] = open carriers, peroxide vapour 200 ppm, contact time 5 min
[9] = open carriers, peroxide vapour 200 ppm, contact time 10 min
[10] = open carriers, peroxide vapour 200 ppm, contact time 20 min
[11] = open carriers, peroxide vapour 200 ppm, contact time […]
[12] = open carriers, peroxide vapour 350 ppm, contact time 5 min
[13] = open carriers, peroxide vapour 350 ppm, contact time 10 min
[14] = open carriers, peroxide vapour 350 ppm, contact time 20 min
[15] = open carriers, peroxide vapour 350 ppm, contact time […]
[16] = peroxide vapour 250 ppm, contact time 5 min
[17] = peroxide vapour 250 ppm, contact time 10 min
[18] = peroxide vapour 250 ppm, contact time 20 min
[19] = peroxide vapour 250 ppm, contact time 30 min
[20] = peroxide vapour 500 ppm, contact time 5 min
[21] = peroxide vapour 500 ppm, contact time 10 min
[22] = peroxide vapour 500 ppm, contact time 20 min
[23] = peroxide vapour 500 ppm, contact time 30 min
[24] = Table 4, peroxide vapour 350 ppm, contact time 15 min
[25] = Table 4, peroxide vapour 550 ppm, contact time 15 min
[26] = Table 4, peroxide vapour 550 ppm, contact time 20 min
[27] = Table 4, peroxide vapour 550 ppm, contact time 30 min

OO [Peroxide, hydrogen peroxide]
3.5 log reduction: Wall (log reduction) (Pseudomonas aeruginosa; [7])
3.4 log reduction: Floor (log reduction) (Pseudomonas aeruginosa; [9])
4.3 log reduction: Wall (log reduction) (Pseudomonas aeruginosa; [6])
4.4 log reduction: Floor (log reduction) (Pseudomonas aeruginosa; [11]) | Wall (log reduction) (Pseudomonas aeruginosa; [15])
5.1 log reduction: Wall (log reduction) Closed carriers (Aspergillus niger [1]; [16])
6.3 log reduction: Wall (log reduction) (Pseudomonas aeruginosa; closed carriers, peroxide vapour 300 ppm, contact time 10 min) | Wall (log reduction) Open carriers (Aspergillus niger [1]; [16]) | Wall (log reduction) Closed carriers (Aspergillus niger [1]; [17]) | Wall (log reduction) Open carriers (Aspergillus niger [1]; [17]) | Wall (log reduction) Closed carriers (Aspergillus niger [1]; [18]) | Wall (log reduction) Open carriers (Aspergillus niger [1]; [18]) | Wall (log reduction) Closed carriers (Aspergillus niger [1]; [19]) | Wall (log reduction) Open carriers (Aspergillus niger [1]; [19]) | Wall (log reduction) Closed carriers (Aspergillus niger [1]; [25])
greater than 6 log reductions: log reductions [3]
6.6 log reduction: Floor (log reduction) Closed carriers (Aspergillus niger [1]; [25]) | Wall (log reduction) Closed carriers (Aspergillus niger [1]; [27])
5.8 log reduction: Floor (log reduction) (Pseudomonas aeruginosa; [4]) | Wall (log reduction) (Pseudomonas aeruginosa; [12])
5.9 log reduction: Wall (log reduction) Open carriers (Aspergillus niger [1]; [24])
5.2 log reduction: Floor (log reduction) (Pseudomonas aeruginosa; [8])
5.7 log reduction: Wall (log reduction) (Pseudomonas aeruginosa; [8]) | Wall (log reduction) (Pseudomonas aeruginosa; [9]) | Floor (log reduction) (Pseudomonas aeruginosa; [10]) | Wall (log reduction) (Pseudomonas aeruginosa; [10]) | Wall (log reduction) (Pseudomonas aeruginosa; [11]) | Wall (log reduction) Closed carriers (Aspergillus niger [1]; [24])
6.7 log reduction: Wall (log reduction) (Pseudomonas aeruginosa; closed carriers, peroxide vapour 300 ppm, contact time 5 min) | Wall (log reduction) (Pseudomonas aeruginosa; [4]) | Floor (log reduction) Open carriers (Aspergillus niger [1]; [25]) | Wall (log reduction) Open carriers (Aspergillus niger [1]; [25]) | Floor (log reduction) (Aspergillus niger [2]; closed) | Wall (log reduction) (Aspergillus niger [2]; closed) | Floor (log reduction) (Aspergillus niger [2]; open) | Wall (log reduction) (Aspergillus niger [2]; open)
TNTC: Floor (log reduction) (Pseudomonas aeruginosa; [5]) | Floor (log reduction) (Pseudomonas aeruginosa; [6]) | Floor (log reduction) (Pseudomonas aeruginosa; [7])
6.1 log reduction: Floor (log reduction) (Pseudomonas aeruginosa; [12]) | Floor (log reduction) (Pseudomonas aeruginosa; [13]) | Wall (log reduction) (Pseudomonas aeruginosa; [13]) | Floor (log reduction) (Pseudomonas aeruginosa; [14]) | Wall (log reduction) (Pseudomonas aeruginosa; [14]) | Floor (log reduction) (Pseudomonas aeruginosa; [15]) | Floor (log reduction) Closed carriers (Aspergillus niger [1]; [24])
6.9 log reduction: Wall (log reduction) Closed carriers (Aspergillus niger [1]; [20]) | Wall (log reduction) Open carriers (Aspergillus niger [1]; [20]) | Wall (log reduction) Closed carriers (Aspergillus niger [1]; [21]) | Wall (log reduction) Open carriers (Aspergillus niger [1]; [21]) | Wall (log reduction) Closed carriers (Aspergillus niger [1]; [22]) | Wall (log reduction) Open carriers (Aspergillus niger [1]; [22]) | Wall (log reduction) Closed carriers (Aspergillus niger [1]; [23]) | Wall (log reduction) Open carriers (Aspergillus niger [1]; [23])
6.5 log reduction: Floor (log reduction) Open carriers (Aspergillus niger [1]; [24])
7.5 log reduction: Floor (log reduction) Closed carriers (Aspergillus niger [1]; [26]) | Floor (log reduction) Open carriers (Aspergillus niger [1]; [26]) | Wall (log reduction) Closed carriers (Aspergillus niger [1]; [26]) | Wall (log reduction) Open carriers (Aspergillus niger [1]; [26]) | Floor (log reduction) Closed carriers (Aspergillus niger [1]; [27]) | Floor (log reduction) Open carriers (Aspergillus niger [1]; [27]) | Wall (log reduction) Open carriers (Aspergillus niger [1]; [27])
3.6 log reduction: Wall (log reduction) (Pseudomonas aeruginosa; [5])
